Assay results published in ChEMBL document CHEMBL4715694, “Discovery of novel tetrahydroisoquinoline-containing pyrimidines as ALK inhibitors” (Bioorg Med Chem, 2016).

How the values were obtained:
in vivo [1] = settings: rat, po, 10 mg/kg
in vivo [2] = settings: rat, po, 10 mg/kg; remark: listed apart in the source
in vitro [3] = settings: rat, liver microsomes
in vitro [4] = settings: human, liver microsomes

Q: With Cc1cc(Nc2ncc(Cl)c(Nc3ccccc3S(=O)(=O)C(C)C)n2)c(OC(C)C)cc1C1CCNCC1 [CERITINIB] as the compound, how does the Cmax (in vivo [1]) read?
A: The Cmax was 90 ng/mL.

Q: And the AUC (in vivo [2])?
A: The AUC was 1400 ng·h/mL.

Q: What about the remaining at 0.5 h, 1 µM (in vitro [3]) of the same compound?
A: The remaining at 0.5 h, 1 µM was 98%.

Q: And the remaining at 0.5 h, 1 µM (in vitro [4])?
A: The remaining at 0.5 h, 1 µM was 88%.
